Paper PMC7488503 (Acta Pharmaceutica Sinica. B, 2020)

Tested on: patient-derived tumor (LI-03-0020) xenograft
Assay: Liver cancer patient-derived tumor xenograft
Type: in vivo, Balb/c nude mice
Conditions: liver cancer PDX model, 60 mg/kg oral QD

Q: How did the T/C (Day 21) turn out when CNC(=O)c1cc(Oc2ccc(NC(=O)Nc3ccc(Cl)c(C(F)(F)F)c3)cc2)ccn1 [Sorafenib, reference compound] was run?
A: The T/C was 31%.

Q: What about the TGI (Day 21) of the same compound?
A: Its TGI is 80%.

Q: And the “Tumor volume at Day 21” value (mean ± SEM)?
A: Its value is 304 ± 73 mm^3.
